Measured values: patent publication US11406576B2, “Method for removing keratotic plugs” (KAO CORPORATION, priority 2017, dated 2022)

Assays:
[1] = Detergency against keratotic plugs: penetration of the sample into keratotic plugs; parameters: species or system human; settings: keratotic plugs kept in contact with sample for 1 minute; results of Table 1
Protocol: (§1) Keratotic plugs in the nasal region were removed with “Biore Nose Pack (manufactured by Kao Corporation)”, the resulting keratotic plugs on the pack were gently taken out with tweezers.
(§2) The resulting keratotic plugs were placed on a slide glass and were covered with a cover glass, and 0.05 mL of a sample was dropwise added to an edge of the cover glass. Consequently, the sample entered into the gap between the slide glass and the cover glass by capillary phenomenon and was brought into contact with the keratotic plugs. The contact of the keratotic plugs with the sample was recorded with a digital microscope (VHX-5000, manufactured by Keyence Corporation, magnification: ×150), and the penetration of the sample into the keratotic plugs and the collapse state of the keratotic plugs were evaluated after one minute from the contact of the keratotic plugs with the sample. The results of each evaluation are shown in the columns “Detergency against keratotic plugs (penetration)” and “Detergency against keratotic plugs (during cleansing)” in Tables. The measurements were performed at 25° C.
(§3) The penetration was relatively evaluated by 11 criteria from the state 1 “the sample hardly penetrated into the keratotic plug” to the state 11 “the sample penetrated to the center of the keratotic plug”. The collapsibility by the detergency against keratotic plugs was relatively evaluated by 11 criteria from the state 1 “almost no change is observed in the external appearance of the keratotic plug” to the state 11 “peeling or separation is observed in the area from the surface layer to the central portion of the keratotic plug (the initial appearance of the keratotic plug is not retained)”.

[2] = Detergency against keratotic plugs after washing with water (collapse state); parameters: species or system human; settings: keratotic plugs kept in contact with water for 1 minute after contact with sample
Excerpt: as §3
After one minute from the contact of the keratotic plugs with the sample, KimWipes (registered trademark) was brought into contact with an edge of the cover glass to remove the sample under the cover glass. Subsequently, 0.05 mL of water was dropwise added to an edge of the cover glass. The sample dropwise added with water was recorded with the digital microscope, and the collapse state of the keratotic plugs was evaluated after one minute from the contact of the keratotic plugs with water according to the criteria for evaluating collapsibility of the keratotic plugs. The results of the evaluation are shown in the column “Detergency against keratotic plugs (after washing with water)” in Table. The measurements were performed at 25° C.

[3] = cited from earlier work
[4] = Detergency against keratotic plugs during cleansing (collapse state); parameters: species or system human; settings: keratotic plugs kept in contact with sample for 1 minute; results of Table 1
Protocol: as §1, §2, §3

[5] = system: insoluble protein (zein protein); assay: Effect of suppressing protein aggregation (precipitation of insoluble protein); settings: results of Table 1
Protocol: Thirty milliliters of a sample and 0.06 g of an insoluble protein (zein protein) were placed in a 35-mL standard glass bottle, and the concentration of the insoluble protein was adjusted to 0.2 mass % (test sample). Separately, a standard sample was prepared by using water instead of the sample and adjusting the concentration of the insoluble protein to 0.2 mass %. Subsequently, the standard glass bottles were sufficiently shaken and stirred up and down (shake width: 15 cm, 20 times at a shake rate of 5 times per 3 seconds) in a thermostatic chamber of 25° C. and were left to stand for 3 minutes. The precipitation state of the insoluble protein was then visually verified, and the ratio of the amount of the precipitated standard sample to the amount of the precipitated test sample (the height of the precipitate in each standard glass bottle was measured as the precipitation amount), (precipitation amount of standard sample)/(precipitation amount of test sample), was calculated. A higher ratio indicates a higher effect of suppressing protein aggregation.

Molecule | penetration into keratotic plugs (in words) [1] | collapse of keratotic plugs on contact with water after the sample (in words) [2] | solubility in water (in words) [3] | collapse of keratotic plugs on contact with sample (in words) [4] | action on proteins (in words) [5]
CC(C)(N)CO [AMP, 2-amino-2-methyl-1-propanol] | penetrated into keratotic plugs | accelerating the collapse | readily dissolved in water | – | –
CC(N)(CO)CO [AMPD, 2-amino-2-methyl-1,3-propanediol] | penetrated into keratotic plugs | accelerating the collapse | – | – | –
NC(CO)(CO)CO [Tris, 2-amino-2-hydroxymethyl-1,3-propanediol] | penetrated into keratotic plugs | accelerating the collapse | readily dissolved in water | – | –
O=P([O-])([O-])O.[Na+].[Na+] [disodium hydrogen phosphate] | hardly penetrated into keratotic plugs | did not progress | – | did not progress | –
O=C([O-])O.[Na+] [sodium hydrogen carbonate] | hardly penetrated into keratotic plugs | did not progress | – | did not progress | –
O=P([O-])([O-])[O-].[Na+].[Na+].[Na+] [trisodium phosphate] | hardly penetrated into keratotic plugs | did not progress | – | did not progress | –
sodium polyoxyethylene (2) lauryl ether sulfate [POE (2) sodium lauryl sulfate] | hardly penetrated into the keratotic plugs | – | – | did not progress | dissolve the proteins
